Test results reported in PubChem BioAssay AID1918933 (Molecular Pharmacology Branch, DTP, NCI, 2023).
pIC50: −log10 of the molar value.

System: 186277-243-T-J2-PDC complex spheroid viability
Test: Anticancer human tumor 186277-243-T-J2-PDC patient-derived colon adenocarcinoma cell line growth inhibition
Conditions: for pIC50: curve of first compound; for viability, T/C: stronger effect = lower value
Outline: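 Drug combinations with the LSD1 inhibitor iadademstat tested on tumor cells co-cultured as spheroids with endothelial cells and mesenchymal stem cells. Concentrations descended in half-log increments from clinical Cmax or 10 microM.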
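Further: 7 day exposure to compounds.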
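Wherever viability, T/C is given: 100% = DMSO vehicle control viability.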

Compound `O=C(C=Cn1cnc(-c2cc(C(F)(F)F)cc(C(F)(F)F)c2)n1)NNc1cnccn1` + NC1CC1c1ccc(-c2cccc(O)c2)cc1 has a pIC50 (second compound 0.1 µM) of 7.25, a pIC50 (second compound 0.316 µM) of 7.24 and a pIC50 (second compound 1 µM) of 7.22. It also gave a pIC50 (second compound 3.16 µM) of 7.23, a pIC50 (second compound 10 µM) of 7.28 and a viability, T/C (second compound 0.1 µM, first compound 0.00316 µM) of 97.5%. It also gave a viability, T/C (second compound 0.1 µM, first compound 0.01 µM) of 96%, a viability, T/C (second compound 0.1 µM, first compound 0.0316 µM) of 84.8% and a viability, T/C (second compound 0.1 µM, first compound 0.1 µM) of 15.7%. For the same compound, the viability, T/C (second compound 0.1 µM, first compound 0.316 µM) was 2.81%, the viability, T/C (second compound 0.1 µM, first compound 1 µM) was 1.29% and the viability, T/C (second compound 0.316 µM, first compound 0.00316 µM) was 104%. It also gave a viability, T/C (second compound 0.316 µM, first compound 0.01 µM) of 105%, a viability, T/C (second compound 0.316 µM, first compound 0.0316 µM) of 88.3% and a viability, T/C (second compound 0.316 µM, first compound 0.1 µM) of 13.8%. For the same compound, the viability, T/C (second compound 0.316 µM, first compound 0.316 µM) was 2.94%, the viability, T/C (second compound 0.316 µM, first compound 1 µM) was 1.28% and the viability, T/C (second compound 1 µM, first compound 0.00316 µM) was 104%. It also gave a viability, T/C (second compound 1 µM, first compound 0.01 µM) of 106%, a viability, T/C (second compound 1 µM, first compound 0.0316 µM) of 93.1% and a viability, T/C (second compound 1 µM, first compound 0.1 µM) of 15.5%. It also gave a viability, T/C (second compound 1 µM, first compound 0.316 µM) of 3.14%, a viability, T/C (second compound 1 µM, first compound 1 µM) of 1.35% and a viability, T/C (second compound 3.16 µM, first compound 0.00316 µM) of 110%. The viability, T/C (second compound 3.16 µM, first compound 0.01 µM) was 116%, the viability, T/C (second compound 3.16 µM, first compound 0.0316 µM) was 91% and the viability, T/C (second compound 3.16 µM, first compound 0.1 µM) was 14%. It also gave a viability, T/C (second compound 3.16 µM, first compound 0.316 µM) of 2.92%, a viability, T/C (second compound 3.16 µM, first compound 1 µM) of 1.47% and a viability, T/C (second compound 10 µM, first compound 0.00316 µM) of 94.1%. For the same compound, the viability, T/C (second compound 10 µM, first compound 0.01 µM) was 95.2%, the viability, T/C (second compound 10 µM, first compound 0.0316 µM) was 78.8% and the viability, T/C (second compound 10 µM, first compound 0.1 µM) was 13.3%. The viability, T/C (second compound 10 µM, first compound 0.316 µM) was 3.41% and the viability, T/C (second compound 10 µM, first compound 1 µM) was 1.57%.
